Experimental data as given in paper PMC9094701, “Multiple-Allele MHC Class II Epitope Engineering by a Molecular Dynamics-Based Evolution Protocol” (Frontiers in Immunology, 2022).

Experiments:
IFNγ-producing cells = experiment: IFNγ ELISpot of splenocytes from immunized mice; format: in vivo, C57BL/6 mice; details: for Experimental rank: rank from the ex vivo experiments; for specific IFNγ-producing cells: C57BL/6 mice, two s.c. doses of 50 μg peptide with AddaVax, splenocytes 15 days after last dose, restimulated with the same peptide 18 h, ELISpot, mean
[1] = test system: MHC II alleles DRB1*01:01, DRB1*03:01, DRB1*04:01 and DRB1*15:01; experiment: Multiple-allele REVEAL score; format: binding, human; details: average of the scores of each allele; Figure 4A
Method: The 18 designed candidates and the additional controls were synthesized and analysed using the ProImmune REVEAL® MHC-peptide binding assay to determine their level of binding to the MHC II alleles DRB1*01:01, DRB1*03:01, DRB1*04:01 and DRB1*15:01. A multiple-allele score was measured to evaluate if the peptides improved toward multiple alleles ( Figure 4A ). Of the 18 peptides, the peptide […] could not be synthesized by the Prospector PEPscreen® technology. […] None of the peptides, including the controls, were able to trigger a signal for the allele DRB1*03:01 (see Figure 4A ). […]
A gold-standard method of rate binding experiments against the MHC II alleles was performed with the Proimmune REVEAL® binding assay. The method uses antibody-labelled peptides that emit a signal if native conformations of the complexes are detected. […]
For the single-allele binding optimization phase, 17 peptides selected were assayed together with the controls against the DRB1*01:01 allele. For the multiple-allele engineering phase, 18 P. vivax engineered epitopes were evaluated for the MHC II alleles DRB1*01:01, DRB1*03:01, DRB1*04:01 and DRB1*15:01. A multiple-allele score was calculated by averaging the scores of each allele, and by weighting each allele based on the their frequencies in the world population. […]

[2] = molecular target: MHC II (HLA) allele DRB1*01:01 (Homo sapiens, UniProt P01903+P01911, A100R/D57E/F55L/F60I/F76Y/I96L/L162R/M171V/P40L/Q125E/R42F/V115G/Y59C); experiment: ProImmune REVEAL MHC-peptide binding assay; details: score 0-100 by comparison with a control T-cell epitope, 0 and 24 hours, Figure 2E
[3] = Influenza sequences and PADRE, Table S11

Sequence: AKFVAAWTLKAAA [reference compound]
- Experimental rank (IFNγ-producing cells; [3]): 1

Sequence: DYDVVYLKPLAGMYK [reference compound]
- specific IFNγ-producing cells (IFNγ-producing cells): 295 SFU/10^6 cells
- Experimental rank (IFNγ-producing cells; P. vivax sequences, Table S10): 1

Sequence: DYDVVYWKPLAGIYK
- specific IFNγ-producing cells (IFNγ-producing cells): 228 SFU/10^6 cells
- Experimental rank (IFNγ-producing cells; P. vivax sequences, Table S10): 2

Sequence: DYTVVYLKPLAGYDH
- specific IFNγ-producing cells (IFNγ-producing cells): 127 SFU/10^6 cells
- Experimental rank (IFNγ-producing cells; P. vivax sequences, Table S10): 4
- Multiple-allele REVEAL score, in words [1]: superior to the PADRE epitope

Sequence: DYTVVYLKPLAGYDN
- specific IFNγ-producing cells (IFNγ-producing cells): 54 SFU/10^6 cells
- Experimental rank (IFNγ-producing cells; P. vivax sequences, Table S10): 5

Sequence: VYDVVYLKPLAGCYK
- specific IFNγ-producing cells (IFNγ-producing cells): 145 SFU/10^6 cells
- Experimental rank (IFNγ-producing cells; P. vivax sequences, Table S10): 3

Sequence: YPKYVKQNTLKLAT [Influenza A virus peptide from the Hemagglutinin antigen, reference compound]
- specific IFNγ-producing cells (IFNγ-producing cells): 463 SFU/10^6 cells
- Experimental rank (IFNγ-producing cells; [3]): 3

Sequence: YSKYKKQNTLKAAT
- specific IFNγ-producing cells (IFNγ-producing cells): 473 SFU/10^6 cells
- Experimental rank (IFNγ-producing cells; [3]): 2
- REVEAL binding score, performance in words [2]: much superior to the original peptide sequence, and even to the PADRE control
